# Measured values from ChEMBL document CHEMBL1201862, “PubChem BioAssay data set” (2004).
# Calls of active or inactive are those of the source.
# Experiments:
# [1] = biological target: Induced myeloid leukemia cell differentiation protein Mcl-1 (Homo sapiens, UniProt Q07820); type: functional
# Protein skinhead-1 = biological target: T1, Protein skinhead-1 (Caenorhabditis elegans, UniProt P34707); type: functional
# T1 sequence (P34707 whole entry): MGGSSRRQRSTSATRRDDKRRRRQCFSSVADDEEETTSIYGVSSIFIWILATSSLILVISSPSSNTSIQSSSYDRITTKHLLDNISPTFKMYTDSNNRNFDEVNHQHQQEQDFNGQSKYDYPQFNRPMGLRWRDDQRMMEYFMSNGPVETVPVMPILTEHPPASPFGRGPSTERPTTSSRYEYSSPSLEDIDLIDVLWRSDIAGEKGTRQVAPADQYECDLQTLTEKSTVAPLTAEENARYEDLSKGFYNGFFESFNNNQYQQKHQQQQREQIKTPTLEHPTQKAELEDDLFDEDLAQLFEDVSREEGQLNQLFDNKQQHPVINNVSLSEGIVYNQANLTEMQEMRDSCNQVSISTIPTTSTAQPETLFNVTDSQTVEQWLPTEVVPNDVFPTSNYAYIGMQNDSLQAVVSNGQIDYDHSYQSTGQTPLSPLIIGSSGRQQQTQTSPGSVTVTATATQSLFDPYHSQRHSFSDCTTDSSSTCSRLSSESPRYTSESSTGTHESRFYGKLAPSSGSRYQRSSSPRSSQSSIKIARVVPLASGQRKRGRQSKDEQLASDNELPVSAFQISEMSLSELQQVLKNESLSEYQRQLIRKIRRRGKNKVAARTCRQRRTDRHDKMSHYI
# [2] = biological target: T2, Calpain-2 catalytic subunit (Sus scrofa, UniProt P43367); assay: m-calpain protease blockers, concentration series – biochemical, fluorogenic peptide substrate, dose response (AID 1420); type: functional
# T2 sequence (P43367 whole entry): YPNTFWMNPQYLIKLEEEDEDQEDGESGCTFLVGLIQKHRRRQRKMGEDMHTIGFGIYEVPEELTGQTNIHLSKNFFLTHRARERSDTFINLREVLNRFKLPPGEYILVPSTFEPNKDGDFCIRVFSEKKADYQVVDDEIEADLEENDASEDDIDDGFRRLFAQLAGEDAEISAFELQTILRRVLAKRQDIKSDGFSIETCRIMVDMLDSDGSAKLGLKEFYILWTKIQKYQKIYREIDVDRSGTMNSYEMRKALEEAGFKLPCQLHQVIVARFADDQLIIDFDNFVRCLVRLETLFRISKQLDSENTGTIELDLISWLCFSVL
# [3] = Trypanosoma cruzi growth suppression in host cells – NIH3T3 host cells, beta-gal luminescence, confirmation (AID 2044); type: functional, cell-based;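 also: intracellular parasites grown in NIH/3T3 mouse fibroblasts as host cells; luminescent beta-galactosidase reporter signal from transgenic T. cruzi replicating inside host cells; inhibitors lower the luminescence signal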
# [4] = NIH3T3 cell viability loss – ATP luminescence, mouse fibroblasts, counter-screen, dose response (AID 2010); type: functional, cell-based;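 also: cells exposed to compound for about 90 hours before reading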
# [5] = biological target: T3, Heat shock factor protein 1 (Mus musculus, UniProt P38532); assay: enhancement of HSF1-driven luciferase signal – cell-based, NIH3T3, luminescence, dose retest, confirmation (AID 435004); type: functional;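 also: stress induced by proteasome inhibitor MG132 added 30 min after compound; luciferase reporter driven by HSF1 response element in NIH3T3 cells; actives raise luminescence as potentiators of the MG132 stress response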
# T3 sequence (P38532 whole entry): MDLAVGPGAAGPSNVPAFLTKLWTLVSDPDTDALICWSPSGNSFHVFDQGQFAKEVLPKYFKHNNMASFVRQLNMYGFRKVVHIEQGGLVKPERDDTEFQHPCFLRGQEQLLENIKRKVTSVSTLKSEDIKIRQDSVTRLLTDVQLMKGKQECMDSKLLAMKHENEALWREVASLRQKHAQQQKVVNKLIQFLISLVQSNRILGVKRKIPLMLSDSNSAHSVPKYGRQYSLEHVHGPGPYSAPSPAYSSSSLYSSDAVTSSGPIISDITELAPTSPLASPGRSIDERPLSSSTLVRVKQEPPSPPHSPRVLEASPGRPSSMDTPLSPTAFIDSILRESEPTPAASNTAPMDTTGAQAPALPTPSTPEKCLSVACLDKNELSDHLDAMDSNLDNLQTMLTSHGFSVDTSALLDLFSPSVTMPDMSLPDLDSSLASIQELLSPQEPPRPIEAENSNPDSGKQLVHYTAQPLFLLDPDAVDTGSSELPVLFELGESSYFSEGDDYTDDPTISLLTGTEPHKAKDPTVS
# [6] = biological target: T4, Replicative DNA helicase DnaB (Mycobacterium tuberculosis, UniProt P9WMR3); assay: DnaB intein splicing inhibitors, dose response, biochemical, cell-free fluorescence (AID 449749); type: functional
# T4 sequence (P9WMR3 whole entry): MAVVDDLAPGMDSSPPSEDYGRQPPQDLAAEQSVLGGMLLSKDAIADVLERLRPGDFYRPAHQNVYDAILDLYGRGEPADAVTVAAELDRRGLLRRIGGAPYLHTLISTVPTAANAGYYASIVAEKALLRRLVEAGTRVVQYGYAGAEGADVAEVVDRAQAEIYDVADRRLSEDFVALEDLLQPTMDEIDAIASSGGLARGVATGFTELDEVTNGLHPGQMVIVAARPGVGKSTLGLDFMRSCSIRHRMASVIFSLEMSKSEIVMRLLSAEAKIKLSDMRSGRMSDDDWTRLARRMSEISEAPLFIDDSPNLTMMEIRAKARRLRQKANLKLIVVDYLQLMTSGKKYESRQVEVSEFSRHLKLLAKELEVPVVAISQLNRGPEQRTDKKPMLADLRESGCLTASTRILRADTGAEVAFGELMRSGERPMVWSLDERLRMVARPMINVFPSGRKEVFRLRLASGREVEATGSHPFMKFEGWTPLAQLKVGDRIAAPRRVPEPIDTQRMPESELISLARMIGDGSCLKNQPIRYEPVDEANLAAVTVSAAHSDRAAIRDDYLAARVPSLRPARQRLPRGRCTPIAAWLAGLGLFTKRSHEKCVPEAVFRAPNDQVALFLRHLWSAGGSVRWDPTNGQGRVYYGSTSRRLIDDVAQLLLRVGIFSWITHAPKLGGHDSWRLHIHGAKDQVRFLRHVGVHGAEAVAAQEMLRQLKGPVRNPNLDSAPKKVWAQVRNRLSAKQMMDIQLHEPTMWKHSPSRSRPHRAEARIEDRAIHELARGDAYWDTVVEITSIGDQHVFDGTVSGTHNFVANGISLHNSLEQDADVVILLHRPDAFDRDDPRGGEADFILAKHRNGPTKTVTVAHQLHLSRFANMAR
# Protein RecA = biological target: T5, Protein RecA (Mycobacterium tuberculosis, UniProt P9WHJ3); assay: Fluorescence Cell-Free Homogeneous Dose Retest to Identify Inhibitors of RecA-Intein Splicing Activity. [Related pubchem assays (depositor defined):AID2097, AID2223, AID489010, AID492950]; type: functional
# T5 sequence (P9WHJ3 whole entry): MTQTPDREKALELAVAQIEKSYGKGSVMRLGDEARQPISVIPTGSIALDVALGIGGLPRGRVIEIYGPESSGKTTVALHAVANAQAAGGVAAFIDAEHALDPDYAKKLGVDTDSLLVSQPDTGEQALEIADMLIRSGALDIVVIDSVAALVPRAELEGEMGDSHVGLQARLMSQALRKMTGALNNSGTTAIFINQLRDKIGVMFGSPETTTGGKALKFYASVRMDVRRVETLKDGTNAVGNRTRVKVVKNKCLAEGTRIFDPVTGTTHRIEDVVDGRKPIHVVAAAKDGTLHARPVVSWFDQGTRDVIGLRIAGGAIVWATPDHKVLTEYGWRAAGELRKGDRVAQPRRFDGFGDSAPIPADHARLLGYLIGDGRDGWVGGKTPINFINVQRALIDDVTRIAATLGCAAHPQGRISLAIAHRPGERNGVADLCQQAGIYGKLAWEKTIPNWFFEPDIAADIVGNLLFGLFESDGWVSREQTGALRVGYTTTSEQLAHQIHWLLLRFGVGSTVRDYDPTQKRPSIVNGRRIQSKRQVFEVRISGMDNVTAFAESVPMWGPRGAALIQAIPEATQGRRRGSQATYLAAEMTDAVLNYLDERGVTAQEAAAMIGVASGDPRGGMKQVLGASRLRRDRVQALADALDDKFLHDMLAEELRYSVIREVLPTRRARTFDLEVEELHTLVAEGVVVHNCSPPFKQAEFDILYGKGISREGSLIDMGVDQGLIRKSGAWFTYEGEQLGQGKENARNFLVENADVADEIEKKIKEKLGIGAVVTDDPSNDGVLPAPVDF
# [7] = blockers of HIV-1 envelope-mediated cell-cell fusion – cherry-pick, dose response (AID 652057); type: functional, cell-based
# [8] = HIV-1 AD8 envelope cell-cell fusion blockers – cherry-pick, dose response (AID 652062); type: functional, cell-based;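 also: luciferase signal from cell-cell fusion driven by HIV-1 clade B AD8 Env; potency is for inhibitors of fusion seen as a drop in luminescence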
# [9] = biological target: T6, Microphthalmia-associated transcription factor (Homo sapiens, UniProt O75030); assay: reducers of TRPM1 reporter luminescence, concentration series – cell-based, SK-MEL-5, cherry-picked, set 3, MITF inhibitor project, dose response (AID 493073); type: functional;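 also: SK-MEL-5 melanoma cells with luciferase driven by the MITF target TRPM1 promoter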
# T6 sequence (O75030 whole entry): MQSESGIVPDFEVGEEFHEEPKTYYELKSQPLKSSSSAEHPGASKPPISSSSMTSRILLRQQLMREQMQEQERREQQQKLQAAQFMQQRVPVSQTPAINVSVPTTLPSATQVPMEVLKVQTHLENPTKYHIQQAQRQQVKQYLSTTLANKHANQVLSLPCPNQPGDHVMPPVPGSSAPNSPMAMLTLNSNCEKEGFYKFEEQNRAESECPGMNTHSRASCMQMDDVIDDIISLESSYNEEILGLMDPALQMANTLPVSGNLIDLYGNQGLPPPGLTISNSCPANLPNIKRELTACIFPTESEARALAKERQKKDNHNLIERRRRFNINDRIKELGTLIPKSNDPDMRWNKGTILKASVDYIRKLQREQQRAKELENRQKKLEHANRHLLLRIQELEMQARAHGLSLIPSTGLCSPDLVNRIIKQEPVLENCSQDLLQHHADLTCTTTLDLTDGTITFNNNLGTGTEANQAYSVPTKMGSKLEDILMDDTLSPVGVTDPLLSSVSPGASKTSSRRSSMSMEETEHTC
# [10] = biological target: T3, Heat shock factor protein 1; assay: decrease of HSF1-responsive luciferase luminescence – cell-based, NIH3T3, dose retest, confirmation (AID 2382); type: functional;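 also: NIH3T3 fibroblasts with HSF1-driven luciferase reporter stressed by proteasome inhibitor MG132; luminescence from HSF1-driven luciferase expression after 8 hours of MG132 stress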
# Induced myeloid leukemia cell differentiation protein Mcl-1, sequence (Q07820 whole entry): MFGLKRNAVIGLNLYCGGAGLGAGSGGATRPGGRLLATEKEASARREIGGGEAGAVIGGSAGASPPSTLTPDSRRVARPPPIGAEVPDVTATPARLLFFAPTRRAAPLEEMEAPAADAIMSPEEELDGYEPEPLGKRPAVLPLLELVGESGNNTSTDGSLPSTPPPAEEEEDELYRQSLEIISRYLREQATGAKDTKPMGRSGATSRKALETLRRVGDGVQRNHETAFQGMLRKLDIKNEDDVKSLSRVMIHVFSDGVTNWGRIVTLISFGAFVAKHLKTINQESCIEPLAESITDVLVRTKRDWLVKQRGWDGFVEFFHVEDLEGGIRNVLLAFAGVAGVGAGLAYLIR
structure (smiles),measurement,setting,value
COc1ccc(-c2csc(Nc3ccccc3)n2)cc1,IC50,[1],10.3 µM (not active)
same,IC50,Protein skinhead-1,> 100 µM (inactive)
COCCNC(=O)NC(=O)CN1CCCc2ccccc21,IC50,[2],< 0.4 µM (not active)
CC1=Nc2ccccc2N=C(NC(=O)CN2CCN(c3ccccc3)CC2)C1c1ccccc1 (stereo unspecified),EC50,[3],2.06 µM (active)
same,IC50,[2],> 50 µM (not active)
same,EC50,[4],> 30 µM (not active)
CS(=O)(=O)N(CC(=O)NCCc1ccccc1)c1cccc([N+](=O)[O-])c1,IC50,[2],5.74 µM (not active)
O=C(Nc1ccc(Cl)c(Cl)c1)N1N=CCC1c1ccccc1 (stereo unspecified),IC50,[2],8.45 µM (not active)
Brc1ccc(OCc2cn3ccccc3n2)cc1,EC50,[5],> 260 µM (inactive)
same,IC50,Protein skinhead-1,41.9 µM (active)
Cc1nn(Cc2ccccc2)c2c1C(c1ccc(Cl)cc1)C(C#N)=C(N)O2 (stereo unspecified),AC50,[6],6.41 µM (active)
same,EC50,Protein RecA,3.58 µM (active)
O=C(CN1C(=O)CCS(=O)(=O)c2ccccc21)NCc1ccccc1,IC50,Protein skinhead-1,> 100 µM (inactive)
C(=C1c2ccccc2-c2ccccc21)c1ccncc1,IC50,Protein skinhead-1,> 100 µM (inactive)
CCC(C(=O)OCC(=O)Nc1ccccc1-c1ccccc1)c1ccccc1 (stereo unspecified),IC50,[2],9.96 µM (not active)
COc1cc(/C=N/NC(=O)c2ccc([N+](=O)[O-])cc2Cl)cc(Br)c1O,IC50,[1],15.2 µM (not active)
O=C(CNc1ccc2ccccc2c1)N/N=C/C=C/c1cccc([N+](=O)[O-])c1,IC50,[1],6.79 µM (active)
C#Cc1cccc(-n2nnc(C(=O)OC)c2-c2ccccc2)c1,IC50,Protein skinhead-1,> 100 µM (inactive)
O=C(Cc1ccccc1)c1c[nH]c(C(=O)C(Cl)(Cl)Cl)c1,AC50,[6],4.92 µM (active)
same,EC50,Protein RecA,4.99 µM (active)
O=C1c2cccc3cc([N+](=O)[O-])cc(c23)C(=O)N1/N=C/c1ccc(O)cc1O,IC50,[1],1.44 µM (active)
O=C(C[C@H]1CC[C@H]2[C@@H](COC[C@H](O)CN2C(=O)Nc2ccc(Cl)c(Cl)c2)O1)NCc1ccncc1,AC50,[7],31.5 µM (active)
same,AC50,[8],26.5 µM (active)
C#CCCc1ccccc1/C=[N+](/C)[O-],AC50,[9],9.4 µM (active)
COc1ccc(N2CCN(C(=O)CCC(=O)c3cc(C)sc3C)CC2)cc1,IC50,[2],30.3 µM (not active)
COC(=O)CC1(c2cccc3ccccc23)C(=O)c2ccccc2C1=O,AC50,[6],5.91 µM (active)
same,EC50,Protein RecA,4.46 µM (active)
COc1ccc(NC(=O)Nc2ccc(N3CCOCC3)c3nonc23)c(OC)c1,IC50,Protein skinhead-1,> 100 µM (inactive)
COc1cccc2c(C)c(C(=O)O)[nH]c12,EC50,[10],5.27 µM (active)
same,IC50,[1],2.81 µM (active)
CC1=NN(c2ccccc2)C(=O)/C1=C\c1cc(C)n(-c2cccnc2)c1C,AC50,[6],44.8 µM (active)
same,EC50,Protein RecA,88.8 µM (active)
Cc1onc(-c2c(Cl)cccc2Cl)c1C(=O)n1nnc2ccccc21,AC50,[6],16.4 µM (active)
same,EC50,Protein RecA,26.5 µM (active)
O=C(c1ccc2c(c1)OCO2)N1CCN(c2ccc(C(F)(F)F)cn2)CC1,IC50,[2],< 0.4 µM (not active)
O=C(Nc1nc(-c2ccccc2)cs1)c1ccccc1F,IC50,Protein skinhead-1,> 100 µM (inactive)
CCOC(=O)c1c(N)sc2c1CCSC2,IC50,Protein skinhead-1,> 100 µM (inactive)
CN(C)CCCNC(=O)[C@H]1[C@H](CO)[C@H]2Cn3c(ccc(C4=CCCC4)c3=O)[C@H]2N1CCC(F)(F)F,AC50,[8],1.09 µM (active)
Cc1ccc(NC2=NC(=O)/C(=C/C=C/c3ccco3)S2)cc1,IC50,[1],8.32 µM (active)
CN1CCN(c2ccc([N+](=O)[O-])cc2/C=N/NC(=O)c2cccc([N+](=O)[O-])c2)CC1,IC50,[1],3.57 µM (active)
CCCNC(=O)COC(=O)c1[nH]c(C)c(C(=O)OCC)c1C,IC50,Protein skinhead-1,> 100 µM (inactive)
